Results reported in US20150272939A1, “Identification of Small Molecule Inhibitors of Jumonji AT-Rich Interactive Domain 1A (JARID1A) and 1B (JARID1B) Histone Demethylase” (Yale University, priority 2012, published 2015).
Values joined by “and” are separate entries in the source; they are usually repeats but may differ in a detail not shown here. Equal entries are not always repeated. Where two headings read alike, the source gives them in different places.

Tests used:
[1] = AlphaScreen counterscreen against bio-H3K4me2 peptide in the absence of enzyme (artifact signal); conditions: for Artifact signal: effect of the compound when it is incubated with bio-H3K4me2 peptide: counterscreen, no enzyme; for Artifact Signal (percent): effect of the compound when incubated with bio-H3K4me2 peptide (counterscreen, no enzyme);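 on all read-outs here: counterscreen run without enzyme against bio-H3K4me2 peptide to remove false positive hits from the JARID1 demethylase AlphaScreen screen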
[2] = molecular target: T1, JARID1B (Homo sapiens, UniProt Q9UGL1); test: FLAG-JARID1B histone demethylase assay with AlphaScreen detection (HTS and dose response); type: biochemical; conditions: for Validation result of HTS active: effect of the compound in the JARID1B AlphaScreen demethylase assay / Assay Signal (percent): validation of HTS actives; for Validation result of HTS active: effect of the compound in the JARID1B AlphaScreen demethylase assay: total signal before subtraction of artifact signal; for Assay − Artifact Signal (percent): assay signal minus artifact signal; for inhibition at 20 µM: read-out: Inhibitory effect (percent); for Assay Signal (percent): effect of compound in JARID1B AlphaScreen assay;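 on Assay Signal (percent): compound tested at 20 µM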;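 on Assay − Artifact Signal (percent): compound tested at 20 µM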;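 on all read-outs here: FLAG-tagged JARID1B at 4 nM acting on a biotinylated H3K4me3 peptide, demethylation read by AlphaScreen luminescence, with hits checked against bio-H3K4me2 without enzyme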
T1 construct: The FLAG tagged full length JARID1B enzyme was expressed in Sf21 insect cells using FLAG-JARID1B baculoviruses; FLAG (N); made in house; host or cells: Sf21 insect cells (baculovirus)

[3] = high-throughput screen, compound 20 μM, standard demethylase conditions (10 μM α-KG, 50 μM Fe (II))

T1 sequence (Q9UGL1 whole entry): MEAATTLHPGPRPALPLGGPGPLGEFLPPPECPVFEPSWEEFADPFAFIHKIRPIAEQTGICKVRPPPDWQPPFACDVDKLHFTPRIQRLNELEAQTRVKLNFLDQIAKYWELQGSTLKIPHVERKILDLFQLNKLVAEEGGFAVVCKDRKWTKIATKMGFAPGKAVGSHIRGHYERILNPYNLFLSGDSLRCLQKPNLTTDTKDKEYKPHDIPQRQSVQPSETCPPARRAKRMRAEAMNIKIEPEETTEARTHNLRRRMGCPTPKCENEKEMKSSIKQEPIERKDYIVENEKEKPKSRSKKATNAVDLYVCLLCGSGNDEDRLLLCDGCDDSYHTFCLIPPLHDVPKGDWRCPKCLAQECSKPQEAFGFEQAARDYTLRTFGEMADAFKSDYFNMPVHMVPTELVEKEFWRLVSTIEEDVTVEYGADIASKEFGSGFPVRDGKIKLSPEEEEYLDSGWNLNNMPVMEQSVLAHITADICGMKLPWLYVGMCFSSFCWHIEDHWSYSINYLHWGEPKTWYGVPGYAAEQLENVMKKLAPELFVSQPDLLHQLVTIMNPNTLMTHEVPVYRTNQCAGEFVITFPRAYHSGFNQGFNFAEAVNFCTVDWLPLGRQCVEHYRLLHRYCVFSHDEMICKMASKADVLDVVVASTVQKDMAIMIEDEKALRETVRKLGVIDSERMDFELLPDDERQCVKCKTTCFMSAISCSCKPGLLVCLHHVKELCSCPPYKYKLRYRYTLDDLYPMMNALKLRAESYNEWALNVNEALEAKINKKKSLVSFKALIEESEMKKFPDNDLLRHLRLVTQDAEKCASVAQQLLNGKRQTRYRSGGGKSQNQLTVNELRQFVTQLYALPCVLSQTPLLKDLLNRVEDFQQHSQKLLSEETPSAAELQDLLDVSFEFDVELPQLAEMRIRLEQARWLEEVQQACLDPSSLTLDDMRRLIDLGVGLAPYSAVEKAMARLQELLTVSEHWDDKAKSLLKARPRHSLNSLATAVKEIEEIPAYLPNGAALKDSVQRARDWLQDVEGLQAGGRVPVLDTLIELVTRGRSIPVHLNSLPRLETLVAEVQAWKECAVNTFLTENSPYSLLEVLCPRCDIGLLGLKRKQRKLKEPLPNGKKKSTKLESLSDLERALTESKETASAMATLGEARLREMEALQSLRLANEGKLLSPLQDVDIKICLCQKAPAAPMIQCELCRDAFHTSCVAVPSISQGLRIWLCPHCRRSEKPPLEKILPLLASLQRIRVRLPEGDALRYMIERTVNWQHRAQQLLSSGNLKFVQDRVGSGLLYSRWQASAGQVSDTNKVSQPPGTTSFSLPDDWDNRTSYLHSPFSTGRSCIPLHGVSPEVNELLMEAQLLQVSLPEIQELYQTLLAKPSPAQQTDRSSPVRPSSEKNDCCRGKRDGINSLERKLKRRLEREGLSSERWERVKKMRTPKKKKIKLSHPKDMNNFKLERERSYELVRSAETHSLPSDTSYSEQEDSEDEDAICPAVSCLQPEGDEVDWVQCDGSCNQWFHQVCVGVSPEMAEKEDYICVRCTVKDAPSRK

Row | Structure (SMILES) | Artifact signal: effect of the compound when it is incubated with bio-H3K4me2 peptide [1] | Validation result of HTS active: effect of the compound in the JARID1B AlphaScreen demethylase assay [2] | Artifact Signal (percent) [1] | Assay − Artifact Signal (percent) [2] | inhibition at 20 µM [2, 3] | Assay Signal (percent) [2] | inhibition at 20 µM ([2]; high-throughput screen, compound 20 μM, IDs marked *: additional hits under reaction condition with 1 mM α-KG) | Inhibitory effect (percent) [2, 3]
1 | O=C(O[C@@H]1Cc2c(O)cc(O)cc2O[C@@H]1c1cc(O)c(O)c(O)c1)c1cc(O)c(O)c(O)c1 [YU153090, EPIGALLOCATECHIN-3- MONOGALLATE, reference compound] | 90.25 | 95.83 |  |  |  |  |  | 
2 | Cc1cc(C(=O)Nc2c(C)n(C)n(-c3ccccc3)c2=O)c(C)o1 [YU153128] |  |  | 4.15% | 8.37% | 101% | 12.52% |  | 
3 | O=C(NC1=NC(=O)C(F)(C(F)(F)F)S1)NC1CCCCC1 (stereo not drawn) [YU153281] |  |  | 1.95% | 23.51% | 55.3% | 25.46% |  | 
4 | CCOc1c(CNc2ccc(N3CCCC3)cc2)cccc1OC [YU153287] |  |  | 17.14% | 11.21% | 54.2% | 28.35% |  | 
5 | O=c1c2cc(O)c(O)cc2oc2cc(O)c([C@@H]3O[C@H](CO)[C@@H](O)[C@H](O)[C@H]3O)c(O)c12 [YU153356, MANGIFERIN, reference compound] |  |  | 76.59% | 21.62% |  | 98.21% |  | 
6 | Fc1cccc(-c2nn3c(-c4ccccc4Cl)nnc3s2)c1 [YU153729] |  |  | −3.54% | 14.96% | 33.9% | 11.41% |  | 
7 | Cn1c(=O)n(C)c2cc(S(=O)(=O)NNc3ccccc3)ccc21 [YU153899] | 0.54 | 8.44 |  |  |  |  |  | 
8 | O=C(NC1CCCCC1)c1ccc(NC(=O)c2ccccc2O)cc1 [YU154737] |  |  | 4.58% | 23.65% | 45% | 28.23% |  | 
9 | O=C(O)c1cc(N(Cc2ccccc2O)Cc2cc(O)ccc2O)ccc1O [YU154829, LAVENDUSTIN A, reference compound] |  |  | 8.32% | 30.24% | 50.3% | 38.57% |  | 
10 | N#CC(C#N)=Cc1cc(O)c(O)c(O)c1 [YU154832, TYRPHOSTIN 25, reference compound] |  |  | 5.21% | 17.87% | 53.7% | 23.08% |  | 
11 | Oc1cc(O)cc(/C=C/c2ccc(O)c(O)c2)c1 [YU154843, PICEATANNOL, reference compound] |  |  | −4.85% | 18.12% | 34% | 13.28% |  | 
12 | O=C(O)c1cc(NCc2cc(O)ccc2O)ccc1O [YU154859, 2-HYDROXY-5-(2,5- DIHYDROXYBENZYL- AMINO)BENZOIC ACID, reference compound] |  |  | 3.65% | 42.61% | 46.4% | 46.26% |  | 
13 | O=c1c(O)c(-c2ccc(O)c(O)c2)oc2cc(O)cc(O)c12 [YU154882, QUERCETIN, reference compound] |  |  | 78.83% and 68.48% |  | 86% | 100.88% and 78.65% |  | 93.51%
14 | COCc1cc(O)c(O)c(O)c1-c1c(COC)cc(O)c(O)c1O [YU154887, 2,2,3,3,4,4- HEXAHYDROXY-1,1- BIPHENYL-6,6- DIMETHANOL DIMETHYL ETHER, reference compound] |  |  | 42.41% | 57.15% | 103% | 99.57% |  | 
15 | Oc1ccc2c(c1)OCC1(O)Cc3cc(O)c(O)cc3C21 (stereo not drawn) [YU154998, BRAZILIN, reference compound] |  |  | −0.48% | 15.98% | 70.3% | 15.51% |  | 
16 | O=c1c(O)cc([C@H]2Oc3cc(O)cc(O)c3C[C@H]2O)cc2c([C@H]3Oc4cc(O)cc(O)c4C[C@H]3O)cc(O)c(O)c12 [YU155003, THEAFLAVIN, reference compound] |  |  | 47.32% | 13.49% | 60.4% | 60.81% |  | 
17 | Oc1cc2c(cc1O)C1c3ccc(O)c(O)c3OCC1(O)C2 (stereo not drawn) [YU155005, HAEMATOXYLIN, reference compound] |  |  | 34.32% | 64.59% | 101% | 98.90% |  | 
18 | COc1ccc(-c2coc3cc(O)ccc3c2=O)c(O)c1O [YU155016, KOPARIN, reference compound] |  |  | 14.33% | 13.76% |  | 28.09% | 42.3% | 

Second part, led by results:

Row | Artifact signal: effect of the compound when it is incubated with bio-H3K4me2 peptide [1] | Validation result of HTS active: effect of the compound in the JARID1B AlphaScreen demethylase assay [2] | Artifact Signal (percent) [1] | Assay − Artifact Signal (percent) [2] | inhibition at 20 µM [2, 3] | Assay Signal (percent) [2] | inhibition at 20 µM ([2]; high-throughput screen, compound 20 μM, IDs marked *: additional hits under reaction condition with 1 mM α-KG) | Structure (SMILES) | Inhibitory effect (percent) [2, 3]
19 |  |  | −3.09% | 37.96% | 45.2% | 34.87% |  | C#CCOc1c(Cl)cc(C(=S)N2CCOCC2)cc1OC [YU153110] | 
20 |  |  | 61.80% | 37.81% |  | 99.61% |  | O=c1c(O)c(-c2ccc(O)c(O)c2)oc2c(O[C@@H]3O[C@H](CO)[C@@H](O)[C@H](O)[C@H]3O)c(O)cc(O)c12 [YU153353, GOSSYPIN, reference compound] | 
21 | −2.05 | 1.57 |  |  | 41.2% |  |  | CN(C)CCn1c2c(c3ccccc31)CCCn1cnnc1-2.Cl [YU153907] | 
22 |  |  | −6.99% | 21.66% | 40.5% | 14.67% |  | c1ccc(-c2nn3c(Cn4cnc5ccccc54)nnc3s2)cc1 [YU153935] | 
23 |  |  | 5.50% | 24.37% | 40% | 29.87% |  | c1cncc(-c2nn3c(Cn4cnc5ccccc54)nnc3s2)c1 [YU154091] | 
24 | 5.46 | 5.76 |  |  | 40.7% |  |  | CN(C)CCCn1cc(C2=C(c3c[nH]c4ccccc34)C(=O)NC2=O)c2ccccc21 [YU154851, GF 109203X, reference compound] | 
25 | 38.79 | 41.07 |  |  | 44% |  |  | Cn1cc(C2=C(c3cn(CCCSC(=N)N)c4ccccc34)C(=O)NC2=O)c2ccccc21 [YU154853, Ro 31-8220, reference compound] | 
26 |  |  | −0.14% | 9.26% | 78.8% | 9.12% |  | O=C1C=C2C[C@@]3(O)COc4cc(O)ccc4C3=C2C=C1O [YU155025, BRAZILEIN, reference compound] | 
27 |  |  | 11.14% | 38.83% | 75.9% | 49.97% |  | C=C[C@@H](C1=CC(=O)C(OC)=C(OC)C1=O)c1ccccc1 [YU155075, 3,4-DIMETHOXY- DALBERGIONE, reference compound] | 
